This is an account of results in paper PMC8429549, “Glycosylation reduces the glycan-independent immunomodulatory effect of recombinant Orysata lectin in Drosophila S2 cells” (Scientific Reports, 2021).

In this test the target is T1, BOry (recombinant Orysata from E. coli) (Oryza sativa, UniProt Q0JMY8).
T1 construct: gene SALT; pColdII, N-terminal poly-His tag kept; E. coli BL21; non-glycosylated
T1 sequence (Q0JMY8 1-145): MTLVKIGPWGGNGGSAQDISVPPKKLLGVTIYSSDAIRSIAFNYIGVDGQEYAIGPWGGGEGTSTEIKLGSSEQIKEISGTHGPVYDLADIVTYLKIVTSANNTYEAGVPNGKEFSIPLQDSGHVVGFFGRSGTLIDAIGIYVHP
Description: competition: FITC-BOry on blot of glycosylated YOry. The settings on record: 20 mM mannose in PBS preincubated 20 min; FITC-labelled lectin; competitive with the N-glycan of YOry. The class given is binding.

Turning to `OC[C@H]1OC(O)[C@@H](O)[C@@H](O)[C@@H]1O` (stereo partly shown) [mannose], the “competition: FITC-BOry on blot of glycosylated YOry” value is given as “Preincubation of the FITC-BOry with mannose, abolished the binding to the glycosylated YOry”.
